The source of these data is patent publication US10449261B2, “Compositions targeting radiation-induced molecules and methods of use thereof” (Washington University, priority 2014, dated 2019).

“Also recorded” adds a separate entry of the source. Numbered stars: 1 amine (or outer) side, 2 acyl side, 3 side chain; on linkers, the order of the positions; unused ones are H or OH. Primed or numbered codes have the meaning given here. Ends that are not written are not given here. * marks the point of attachment. K(CHX-A″-DTPA) = O=C(O)CN(CC(=O)O)[C@H](Cc1ccc(NC(=S)NCCCC[C@H](N[*:1])C(=O)[*:2])cc1)CN(CC(=O)O)[C@H]1CCCC[C@@H]1N(CC(=O)O)CC(=O)O; FITC = O=C1OC2(c3ccc(O)cc3Oc3cc(O)ccc32)c2ccc(NC(=S)*)cc21; DTPA = O=C(O)CN(CCN(CC(=O)O)CC(=O)O)CCN(CC(=O)O)CC(=O)*; PEG = not defined here; AEEA = NCCOCCOCC(=O)O

Data set [1] relates to cervical (HT3) heterotopic tumors. As to conditions: for effect of tumor irradiation on tumor binding: HT3, right hind limb 3 fractions of 3 Gy vs sham left.
Procedure: (§7) Nude mice bearing the HT3 and OE33 tumors in both the hind limbs were used (˜1 cm^3). Since radiotherapy is used in treating cervical and esophageal cancers, we also irradiated the tumors. The tumor on the right hind limb was irradiated with 3 fractions of 3 Gy over a course of 24 h, the tumor on the left hind limb was used as sham control. The mice were then injected with 500 μCi (10 μCi/μg) of radiolabeled peptide via tail vein. SPECT/CT imaging was performed at 48 and 72 h post injection.
(§8) Tumor models were established in 6 to 8-week-old female athymic nude mice obtained from Harlan laboratories (USA). Heterotopic tumors were induced by sub-cutaneously injecting tumor cells (1-3×10^6) into hind limbs of athymic nude mice. The tumors were grown until a size of 1 cm^3 before using the mice for SPECT imaging.
(§9) Whole body SPECT images were obtained at 48 and 72 h post injection (p.i.) using a NanoSPECT/CT imager (Bioscan Inc., Washington, D.C., USA) fitted with 2 mm pinhole collimators in helical scanning mode. Mice were placed in prone position and scanned under anesthesia (0.5 L/min 1.5% isoflurane in air). A 45-keV helical CT scan was performed first and then the SPECT acquisition was performed at 24 projections and 60 s per projection, for a total scan time of about 45 min. Tomographic data were reconstructed iteratively with the manufacturer-supplied InVivoScope and HiSPECT software for CT and SPECT, respectively.
(§10) After scanning, 96 h p.i., the bio-distribution of the labelled peptide in various organs was determined. The animals were sacrificed and organs of interest including blood were dissected/collected, weighed, and counted in a gamma counter along with a standard of the injected activity to allow calculation of the injected dose per organ (% ID/organ).
Data set [2] has as its system esophageal (OE33) heterotopic tumors. As to the kind of experiment: NanoSPECT/CT imaging and post-SPECT biodistribution in tumor bearing nude mice. The settings on record: for effect of tumor irradiation on tumor binding: OE33, right hind limb 3 fractions of 3 Gy vs sham left; for tumor uptake, post-SPECT biodistribution, compared to control peptide: OE33 tumor bearing mice, 96 h after injection; for tumor binding by SPECT imaging: OE33 tumors, 48 h and 72 h post injection, 500 μCi via tail vein.
Procedure: as §7, §8, §9, §10

Data set [3] concerns pancreatic cancer (BxPC3) tumors. Put plainly: SPECT/CT imaging of tumor models. The data set is classed as in vivo, mice. As to conditions: right hind limb 3 doses of 3 Gy. The source says:
(§1) In addition we also screened lung cancer (A549), pancreatic cancer (BxPC3) and glioblastoma (D54) tumor models for binding of radiolabeled GIRLRG (SEQ ID NO:1) peptide.

Data set [4] concerns glioblastoma (D54) tumors. As to the kind of experiment: SPECT/CT imaging of tumor models. The format is in vivo, mice. The settings on record: right hind limb 3 doses of 3 Gy.
Source text: as §1

Data set [5] deals with lung cancer (A549) tumors. Put plainly: SPECT/CT imaging of tumor models. The format is in vivo, mice. As to conditions: right hind limb 3 doses of 3 Gy.
Source text: as §1

Another data set has as its system cancer. As to the kind of experiment: Optimisation of the peptide construct: circulation and cancer binding. As to conditions: in vivo. The source says: The GIRLRG (SEQ ID NO:1) peptide conjugated to a poly-lysine linker for DOTA and DTPA conjugation was first studied. […] The duration of tumor binding was improved by PEGylation, with longer circulation times and prolonged imaging in cancer. […] Both PEG20 and PEG40 are effective at enhancing prolonged binding in cancer. […]

A further data set has as its system esophageal tumors. Put plainly: SPECT imaging of 111In-labeled PEG-GIRLRG (Example 1). The data set is classed as in vivo, mouse. The settings on record: 72 hours following administration, 3 Gy vs 0Gy. The protocol:
(§2) The right hind limb tumor was treated with 3 Gy and left hind limb tumor is an untreated (0Gy) internal control in the same mouse.

A further data set concerns cervix tumors. The data set is described as above. The format is in vivo, mouse. The settings on record: 72 hours following administration, 3 Gy vs 0Gy. Here is the method: as §2
Another data set has as its system brain tumors. The description is as above. As to conditions: 72 hours following administration, 3 Gy vs 0Gy. The data set is classed as in vivo, mouse. Here is the method: as §2
Data set [6] in a line: Size and aggregation of pegylated peptides (dynamic light scattering). The data set is classed as physicochemical.
The subject of another data set is irradiated A549 tumors. Put plainly: SPECT imaging and gamma emission of organs and tumors (Example 1). The data set is classed as in vivo, mice. As to conditions: mice with A549 tumors, 3 Gy. The protocol: (§3) SPECT images of the spatial and temporal pharmacokinetics of ^111In-labeled PEG-GIRLRG and ^111In-labeled control peptide within irradiated mouse A549 tumors is shown in FIG. 1. At 7 days after administration, gamma emission from each of the organs and tumors of mice injected with PEG-GIRLRG (SEQ ID NO:1) and PEG-control peptide was measured (FIG. 2).

Data set [7] has as its system irradiated mouse A549 tumors. Described as above. The data set is classed as in vivo, mice. As to conditions: A549 tumors, 7 days after administration. Here is the method:
as §3

The subject of a further data set is HT3 (cervical). Put plainly: Binding of FITC-conjugated GIRLRG to cancer cells (fluorescent microscope). The data set is classed as cell-based. The settings on record: 10 μg/ml, 2 h, 37° C. The protocol: (§4) Four cancer cell lines D54 (glioma), HT3 (cervical), OE33 (eosophageal) and A549 (lung cancer) were used to evaluate binding of GIRLRG (SEQ ID NO:1) peptide. Cancer cells were incubated with FITC-conjugated GIRLRG (SEQ ID NO:1) peptide and fluorescent images were acquired using a fluorescent microscope.
(§5) Cell Lines: Human lung adenocarcinoma A549 and Human glioblastoma D54 cells were cultured in DMEM/F12, human esophageal carcinoma OE33 cells in RPMI and HT3 cells in IMDM media supplemented with 10% fetal bovine serum, penicillin and streptomycin. They were maintained at 37° C. in a 5% CO2 incubator.
(§6) Immunofluorescence: Cancer cells (A549, HT3, D54 and OE33) were grown on chamber slides (Millipore, USA) and incubated with 10 μg/ml FITC-GIRLRG (SEQ ID NO:1) peptide for 2 h at 37° C. in a CO2 incubator. The cells were then washed with PBS to remove unbound peptide and fixed with 4% paraformaldehyde at room temperature. The nuclei were stained with DAPI and fluorescent images were captured using a Carl Zeiss microscope (Tokyo, Japan).

Another data set has as its system OE33 (eosophageal). Described as above. The data set is classed as cell-based, human. The settings on record: 10 μg/ml, 2 h, 37° C. The protocol: as §4, §5, §6
The next data set deals with D54 (glioma). The data set is described as above. The format is cell-based, human. As to conditions: 10 μg/ml, 2 h, 37° C. Here is the method: as §4, §5, §6
The next data set deals with A549 (lung cancer). The data set is described as above. The data set is classed as cell-based, human. The settings on record: 10 μg/ml, 2 h, 37° C. The protocol:
as §4, §5, §6

Data set [8] has as its target T1, recombinant eukaryotic GRP78 protein (Prospec, USA) (UniProt P11021 19-654, limits assumed).
T1 construct: Immobilised by amine coupling on a CM4 chip; also called Glucose-regulated protein 78 kDa; Glucose Regulatory Protein-78
Put plainly: SPR (BIAcore 2000), GRP78 amine-coupled on a CM4 chip, peptide as analyte at 0.313-10 mM, 25 C, HBS-EP. Here is the method: To determine the binding affinity of GIRLRG (SEQ ID NO:1) peptide to GRP78 protein, we used surface plasmon resonance technology. GRP78 protein was immobilized on the surface of CM4 sensor chip and approximately 7000 resonance Units (RUs) of GRP78 protein were immobilized (FIG. 6A). The GIRLRG (SEQ ID NO:1) peptide was dissolved in HBS-EP buffer at various concentrations (10, 5, 2.5, 1.25 and 0.313 mM) and passed over the immobilized GRP78 for 2 min (FIG. 6B). The rate constant K_D was obtained by fitting the sensogram data after reference subtraction (data from blank channel) using the BIA evaluation 3.0 software.
Surface Plasmon Resonance (SPR): Affinity of GIRLRG (SEQ ID NO:1) to GRP78 protein was measured by the biosensor-based SPR technique using an automatic apparatus BIAcore 2000 (GE healthcare, Sweden) as described earlier. The recombinant eukaryotic GRP78 protein (Prospec, USA) as ligand that was immobilized by amine coupling on the CM4 sensor surface and GIRLRG (SEQ ID NO:1) peptide was used as the analyte. Experiments were performed at 25° C. in HBS-EP buffer (GE healthcare). GRP78 protein was immobolized using surface preparation wizard for amine coupling. […] The affinity of the interaction was determined from the level of binding at equilibrium as a function of the sample concentrations by BIA evaluation software 3.0.
On the technique in general: Surface plasmon resonance follows binding to a sensor surface in real time, without labels.

As a reminder, the Kd is the free concentration of one partner at which half of the binding sites on the other are occupied at equilibrium, for simple one-to-one binding.

T1 sequence (P11021 19-654 limits assumed): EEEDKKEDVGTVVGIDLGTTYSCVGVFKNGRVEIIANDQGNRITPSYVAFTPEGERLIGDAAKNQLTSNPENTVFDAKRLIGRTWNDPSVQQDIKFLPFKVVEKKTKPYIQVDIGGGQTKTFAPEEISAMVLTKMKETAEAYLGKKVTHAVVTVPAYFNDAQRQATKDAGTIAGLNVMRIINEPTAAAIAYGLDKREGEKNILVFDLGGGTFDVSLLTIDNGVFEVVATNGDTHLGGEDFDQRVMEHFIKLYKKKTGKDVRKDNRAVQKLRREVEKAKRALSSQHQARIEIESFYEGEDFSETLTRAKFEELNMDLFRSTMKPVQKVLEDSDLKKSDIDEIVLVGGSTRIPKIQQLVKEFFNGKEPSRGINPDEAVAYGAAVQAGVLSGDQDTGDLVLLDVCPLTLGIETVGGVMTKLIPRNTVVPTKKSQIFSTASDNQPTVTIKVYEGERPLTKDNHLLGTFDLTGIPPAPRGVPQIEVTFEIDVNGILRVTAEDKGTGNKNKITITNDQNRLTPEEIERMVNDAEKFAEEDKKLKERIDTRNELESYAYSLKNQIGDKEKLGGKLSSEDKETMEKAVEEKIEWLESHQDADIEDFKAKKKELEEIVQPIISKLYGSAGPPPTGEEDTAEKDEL

For the molecule GIRLRG [GIRLRG], the “effect of tumor irradiation on tumor binding” value in data set [1] and in data set [2] was “did not interfere with specific binding” in each case.
Turning to “^111In-labeled PEG-DTPA-GIRLRG: PEG-GIRLRG radiolabeled with ^111Indium by use of DTPA as the chelator ({PEG-DTPA}-GIRLRG; reading uncertain; also: radiolabeled with 111In chelated by DTPA)”, the “effect of tumor irradiation on tumor binding” value in data set [1] and in data set [2] was “did not affect tumor binding” in each case. Moreover, the “tumor binding by SPECT imaging” value in data set [1] (HT3 tumors, 48 h and 72 h post injection, 500 μCi via tail vein) is on record as “bound”; in data set [2] it was “bound”. The “tumor binding by SPECT/CT imaging” value in [3], in data set [4] and in data set [5] was “enhanced binding” each time. Also, the cancer binding result in the data set on cancer is given as “binds within irradiated cancers”. In addition, the cancer selective binding result with esophageal tumors, with cervix tumors and with brain tumors was “cancer selective binding” in each case. Further, in [2], the “tumor uptake, post-SPECT biodistribution, compared to control peptide” value is “Significantly higher (p<0.001) uptake”.
For the molecule “mPEG40K-carbonyl-Lys(CHX-A″-DTPA)-AEEAc-Lys(CHX-A″-DTPA)-AEEAc-Trp-Lys(CHX-A″-DTPA)-AEEAc-GIRLRG ({mPEG40K‑carbonyl-K(CHX-A″-DTPA)-AEEA-K(CHX-A″-DTPA)-AEEA-Trp-K(CHX-A″-DTPA)-AEEA}-GIRLRG) [PEG-GIRLRG, GIRLRG peptide conjugated to 40 kDa PEG with DTPA as the chelator]”, the “tumor binding by SPECT/CT imaging” value in [3], in [4] and in [5] was “specific binding; also recorded: Enhanced tumor binding” each time. The same molecule yielded a size in data set [6] of 8 nm. Further, the aggregation result in [6] (after heating / radiolabeling conditions) is “did not aggregate even after heating”. Also, the “tumor uptake, post-SPECT biodistribution, compared to control peptide” value in data set [2] is recorded as “Significantly higher uptake”. The “tumor binding by SPECT imaging” value in data set [2] is “specifically bound; also recorded: Enhanced tumor binding”. Further, the “binding to irradiated normal tissue” value in the data set with irradiated A549 tumors is “did not bind to irradiated normal tissue”. For the same molecule, in [7], the “tumor binding (gamma emission from organs and tumors)” value is “selectively bound to tumors”.
Take “FITC-GIRLRG: FITC-conjugated GIRLRG peptide ({FITC}-GIRLRG)”: the “binding to cancer cells” value in the data set on HT3 (cervical) is given as “specifically bound”; in the data set on HT3 (cervical) (listed as FITC labeled GIRLRG), “showed binding”; in the data set on OE33 (eosophageal), “specifically bound”; with OE33 (eosophageal) (listed as FITC labeled GIRLRG), “showed binding”; in the data set on D54 (glioma), “specifically bound”; with D54 (glioma) (listed as FITC labeled GIRLRG), “showed binding”. In addition, the “binding to cancer cells” value in the data set with A549 (lung cancer) is “specifically bound”; in the data set on A549 (lung cancer) (listed as FITC labeled GIRLRG) it was “showed binding”.

B1: GIRLRG (SEQ ID NO:1) peptide (peptide)
peptide: GIRLRG
notes: Unconjugated synthetic hexapeptide, used as the analyte in SPR and as the ligand in the molecular model; also called lead peptide
For the molecule B1, the Kd in data set [8] worked out at 2160 µM.
